# Measurements published in US9734283B2, “Genomic features associated with epigenetic control regions and transgenerational inheritance of epimutations” (priority 2011, dated 2017).
# Key:
# [1] = test system: testicular spermatogenic cells; assay: Testicular spermatogenic cell apoptosis (TUNEL assay), F1-F3 lineage after F0 gestational exposure; format: in vivo, mouse
# Protocol: (§1) The experimental design involved exposing gestating female inbred 129 strain and outbred CD-1 strain mice to daily intraperitoneal (IP) injections of vehicle (DMSO) (control) or vinclozolin at two doses, 100 mg/kg/day (V1) or 200 mg/kg/day (V2), between embryonic day 7-13 of gestation. In addition, a comparison was used with flutamide IP injections at a 20/mg/kg/day dose. The F1 generation males and females from different litters were bred to generate the F2 generation animals and F2 generation males and females from different litters were bred to generate the F3 generation animals, see Methods below. No sibling or cousin breedings occurred to avoid any inbreeding artifacts. Selected F1, F2 and F3 generation animals from postnatal 90 (P90) or 300 (P300) days of age were analyzed for testis, sperm and other pathologies as previously described.^11, 20, 21
# Timed pregnant inbred 129 mice were given intraperitoneal injections with vinclozolin (100 mg/kg·day, 99% pure; ChemService, West Chester, Pa.), flutamide (20 mg/kg·day, Sigma, St. Louis, Mo.) or DMSO in sesame oil (vehicle) as controls, while timed pregnant outbred CD-1 mice were given intraperitoneal injections (IP) with vinclozolin doses: 100 mg/kg·day (V1) or 200 mg/kg·day (V2) or DMSO in sesame oil as controls.^21 Mice were given injections from embryonic day (E) E7-E13, with plug date equal to day 0. Controls were injected with vehicle (DMSO) dose and were matched with vinclozolin or flutamide treatment animals within the same mouse strain at the time of injection and were analyzed together throughout all three generations. […] Male mice were collected and analyzed between P60-P90 (P90) for all generations and treatment groups. […]
# [2] = test system: 129 and CD-1 mice; assay: Litter size, sex ratio, body and tissue weights (toxicity); format: in vivo, mouse; conditions: transient embryonic exposure
# Protocol: as §1
# Timed pregnant inbred 129 mice were given intraperitoneal injections with vinclozolin (100 mg/kg·day, 99% pure; ChemService, West Chester, Pa.), flutamide (20 mg/kg·day, Sigma, St. Louis, Mo.) or DMSO in sesame oil (vehicle) as controls, while timed pregnant outbred CD-1 mice were given intraperitoneal injections (IP) with vinclozolin doses: 100 mg/kg·day (V1) or 200 mg/kg·day (V2) or DMSO in sesame oil as controls.^21 Mice were given injections from embryonic day (E) E7-E13, with plug date equal to day 0. Controls were injected with vehicle (DMSO) dose and were matched with vinclozolin or flutamide treatment animals within the same mouse strain at the time of injection and were analyzed together throughout all three generations. The number of treated gestating females used were: for mouse 129 strain (3 controls and 4 vinclozolin treated); for mouse 129 strain flutamide 20 mg/kg/day dose (3 controls and 3 flutamide treated); and for mouse CD-1 strain (4 control and 3 vinclozolin treated (100 mg/kg/day (V1), 3 vinclozolin 200 mg/kg/day (V2)). F1 postnatal (P)P90 males and females from different litters of control, vinclozolin and flutamide treatment groups were bred to generate the F2 generation. F2 generation mice were bred to generate the F3 generation. Breedings were carefully monitored to eliminate any sibling or cousin breeding to remove potential phenotypes as a result of inbreeding. Male mice were collected and analyzed between P60-P90 (P90) for all generations and treatment groups. The number of P90 males collected for replicates for the mouse 129 strain vinclozolin treatment group (i.e. n value) were: for F1 (8 control, 11 vinclozolin); for F2 (11 control, 22 vinclozolin); and for F3 (11 control, 11 vinclozolin). […]
# [3] = test system: sperm promoter epigenome (DNA methylation); assay: MeDIP-Chip with Affymetrix mouse promoter tiling arrays; format: in vivo; conditions: duplicate arrays, no direct comparative hybridization; none confirmed by bisulfite PCR and mass spectrometry
# Source text: Affymetrics' GeneChip® Mouse Promoter 1.0R Array was used, which contains 4.6 million probes tiled that interrogate nearly 28,000 mouse promoter regions. These probes are 25-mer and tiled at an average resolution of 35 bp with gaps of approximately 10 bp between probes. Each promoter region covers approximately 6 kb upstream through 2.5 kb downstream of 5′ transcription start sites. A total of 6 arrays were used, one each for C1, C2, V1 and V2, one for C1+C2 and another for their DNA inputs, InpC1+InpC2.
# [4] = test system: sperm promoter epigenome (DNA methylation); conditions: previous comparative MeDIP-Chip study; cited from earlier work
# [5] = test system: rats; conditions: previous study; mammary tumors, prostate disease, kidney disease, testis and immune abnormalities; cited from earlier work
smiles,measurement,setting,value
"C=CC1(C)OC(=O)N(c2cc(Cl)cc(Cl)c2)C1=O (racemic) [vinclozolin, (RS)-3-(3,5-dichlorophenyl)-5-methyl-5-vinyl-1,3-oxazolidine-2,4-dione]",mean number of apoptotic germ cells within the testes,"[1]; 129 inbred strain, vinclozolin 100 mg/kg/day IP to F0 E7-E13, F1, F2, F3 at P90, F1 and F2 at P300, vs control",increased
same,testicular apoptotic germ cells,"[1]; CD-1 outbred strain, V1 100 mg/kg/day IP to F0 E7-E13, F1 and F3 P90, F1, F2, F3 P300",significant increases
same,"body weight, testis weight index, or kidney weight index",[2]; F1-F3,no consistent transgenerational differences
same,litter size or male/female sex ratio,[2]; all generations analyzed,no consistent transgenerational effects
same,number of differential methylation regions identified with Affymetrix tiling arrays,[3],seven
same,number of promoters in rat sperm with transgenerational alteration in DNA methylation,[4],48
same,frequencies of adult onset disease states,[5],20-50%
